# From publication PMC9976286, “Combination of In Silico and In Vitro Screening to Identify Novel Glutamate Carboxypeptidase II Inhibitors” (Journal of Chemical Information and Modeling, 2023)
# Like-named read-outs stand apart in the source and are kept apart here.
# Key:
# GCPII = conditions: cited from earlier work; for Ki: read-out: Ki[nM] (54 actives, PDB ID)
# Recombinant human GCPII = molecular target: T1, Recombinant human GCPII (Homo sapiens, UniProt Q04609); experiment: In vitro GCPII inhibition assay, fluorescence-based, RP-HPLC readout (screening at 20 μM and IC50); format: biochemical; conditions: for inhibition at 20 µM: read-out: Inhibition [%] of GCPII activity
# T1 construct: made in house
# Method: The inhibitory potency of the selected compounds against GCPII was determined using a fluorescence-based assay developed in-house. Recombinant human GCPII purified as described previously[40],[41] (final concentration 0.02 nM) was preincubated with 20 μM test compound for the screening in 50 mM Tris-HCl, 150 mM NaCl, 0.001% C12E8 at 37 °C for 10 min. The reaction was initiated by the addition of 100 nM Glu-Glu dipeptide labeled with fluorescein (substrate)[42] in a total volume of 50 μL. Following 15 min incubation, the reaction was terminated by the addition of 5 μL of 0.1% TFA in 5% acetonitrile. […] The data were fitted using the GraphPad Prism software, and IC50 values were calculated from the inhibition curves of two independent experiments using a nonlinear analysis protocol.
# [1] = listed by ChEMBL ID or PDB ID, read-out: GCPII IC50 (Fig. S20, inhibitors with subnanomolar activities)
# [2] = compound at 20 μM, 100 nM fluorescein-labeled Glu-Glu dipeptide substrate
# [3] = dataset of 54 GCPII ligands compiled from the PDB, read-out: IC50[nM] (54 actives, PDB ID)
# [4] = dataset of 54 GCPII ligands compiled from the PDB
# T1 sequence (Q04609 whole entry): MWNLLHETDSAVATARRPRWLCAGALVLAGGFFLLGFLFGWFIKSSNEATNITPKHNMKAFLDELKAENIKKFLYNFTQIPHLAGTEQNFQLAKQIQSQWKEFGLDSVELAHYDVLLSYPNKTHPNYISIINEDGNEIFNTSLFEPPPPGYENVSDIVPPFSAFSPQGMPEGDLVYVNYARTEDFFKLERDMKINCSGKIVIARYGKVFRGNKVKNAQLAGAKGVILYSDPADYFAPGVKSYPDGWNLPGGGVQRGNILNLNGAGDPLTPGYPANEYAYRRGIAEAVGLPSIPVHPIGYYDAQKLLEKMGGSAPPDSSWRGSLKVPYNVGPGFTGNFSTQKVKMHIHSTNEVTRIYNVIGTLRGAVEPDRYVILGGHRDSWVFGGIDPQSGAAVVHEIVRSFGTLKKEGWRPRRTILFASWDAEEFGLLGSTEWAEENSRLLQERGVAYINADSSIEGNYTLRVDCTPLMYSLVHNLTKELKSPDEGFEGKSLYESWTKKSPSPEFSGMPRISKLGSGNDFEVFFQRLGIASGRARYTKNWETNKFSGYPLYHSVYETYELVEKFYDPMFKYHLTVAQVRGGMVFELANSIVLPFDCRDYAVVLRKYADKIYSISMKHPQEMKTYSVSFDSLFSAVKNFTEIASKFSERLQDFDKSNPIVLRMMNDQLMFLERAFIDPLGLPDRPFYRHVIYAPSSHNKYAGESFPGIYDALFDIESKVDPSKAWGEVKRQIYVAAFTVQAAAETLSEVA
SMILES,inhibition at 20 µM (Recombinant human GCPII; [2]) [%],further results
O=C(O)CC[C@H](NP(=O)(O)O)C(=O)O [CHEMBL241779],,IC50 (GCPII; [1]): 0.86 nM
N[C@@H](CCC(=O)N[C@@H](COP(=O)(O)O[C@@H](CCC(=O)O)C(=O)O)C(=O)O)C(=O)O [CHEMBL1289263],,IC50 (GCPII; [1]): 0.55 nM
O=C(O)CC[C@H](NP(=O)(O)OC[C@H](NC(=O)CC[C@H](NC(=O)CCCCCNC(=O)c1ccc(-c2c3ccc(=O)cc-3oc3cc(O)ccc23)c(C(=O)O)c1)C(=O)O)C(=O)O)C(=O)O [CHEMBL1921899],,IC50 (GCPII; [1]): 0.41 nM
O=C(O)CC[C@H](NC(=O)N[C@@H](CCCC(=O)Nc1cccc(F)c1)C(=O)O)C(=O)O [CHEMBL4277729],,IC50 (GCPII; [1]): 0.28 nM
CN(Cc1ccc(F)cc1)C(=O)CCC[C@H](NC(=O)N[C@@H](CCC(=O)O)C(=O)O)C(=O)O [CHEMBL4283406],,IC50 (GCPII; [1]): 0.64 nM
O=C(O)CC[C@H](NC(=O)N[C@@H](CCCC(=O)N(CCNC(=O)c1ccc(F)cc1)c1ccccc1)C(=O)O)C(=O)O [CHEMBL4286872],,IC50 (GCPII; [1]): 0.15 nM
CN(C(=O)CCC[C@H](NC(=O)N[C@@H](CCC(=O)O)C(=O)O)C(=O)O)c1ccc(F)cc1 [CHEMBL4288368],,IC50 (GCPII; [1]): 0.2 nM
CN(Cc1cccc(F)c1)C(=O)CCC[C@H](NC(=O)N[C@@H](CCC(=O)O)C(=O)O)C(=O)O [CHEMBL4291245],,IC50 (GCPII; [1]): 0.46 nM
O=C(O)CC[C@H](NC(=O)N[C@@H](CCCC(=O)NCCNC(=O)c1ccc(F)cc1)C(=O)O)C(=O)O [CHEMBL4294773],,IC50 (GCPII; [1]): 0.94 nM
O=C(O)CCNC(=O)C(F)(F)C(F)(F)C(=O)NCCC(=O)O [Compound 1],0,
N[C@@H](Cn1oc(=O)[nH]c1=O)C(=O)O [Compound 2JBK],,IC50 (GCPII; [3]): 9500 nM
O=C(O)CC[C@H](NC(=O)N[C@@H](CCCCn1cc(COCCOCCNc2ccc([N+](=O)[O-])cc2[N+](=O)[O-])nn1)C(=O)O)C(=O)O [Compound 2XEI],,IC50 (GCPII; [3]): 0.54 nM
O=C(O)c1ccc(NC(=O)c2ccccc2C(=O)O)cc1O [Compound 2],0,
O=C(O)CC[C@H](C[P@@](=O)(O)CCC(=O)O)C(=O)O [Compound 3BHX],,IC50 (GCPII; [3]): 0.7 nM
N[C@@H](CC[P@](=O)(O)C[C@@H](CCC(=O)O)C(=O)O)C(=O)O [Compound 3BI0],,IC50 (GCPII; [3]): 14 nM
"CN(Cc1cnc2nc(N)nc(N)c2n1)c1ccc(C(=O)N[C@H](CC[P@@](=O)(O)C[C@@H](CCC(=O)O)C(=O)O)C(=O)O)cc1 [Compound 3BI1, (2S)-2-{[(R)-[(3R)-3-carboxy-3-{[(4-{[(2,4-diaminopteridin-6-yl)methyl](methyl)amino}phenyl)carbonyl]amino}propyl](hydroxy)phosphoryl]methyl}pentanedioic acid]",,IC50 (GCPII; [3]): 0.12 nM
O=C(O)CC[C@H](NC(=O)N[C@@H](CSCc1ccc(F)cc1)C(=O)O)C(=O)O [Compound 3D7D],,IC50 (GCPII; [3]): 14 nM
O=C(O)CC[C@H](NC(=O)N[C@@H](Cc1ccc(O)c(I)c1)C(=O)O)C(=O)O [Compound 3D7F],,IC50 (GCPII; [3]): 0.5 nM
CSC[C@H](NC(=O)N[C@@H](CCC(=O)O)C(=O)O)C(=O)O [Compound 3D7G],,IC50 (GCPII; [3]): 17 nM
CSCC[C@H](NC(=O)N[C@@H](CCCCNC(=O)c1ccc(I)cc1)C(=O)O)C(=O)O [Compound 3SJF],,IC50 (GCPII; [3]): 23 nM
Cc1sc(NC(=O)CC(C)(C)CC(=O)Nc2sc(C)c(C)c2C(=O)O)c(C(=O)O)c1C [Compound 3],11,
O=C(O)CC[C@H](N[P@](=O)(O)OCCC[C@H](NC(=O)CC[C@H](NC(=O)c1ccc(F)cc1)C(=O)O)C(=O)O)C(=O)O [Compound 4LQG],,IC50 (GCPII; [3]): 1.3 nM
CC(=O)N(CCCC[C@H](NC(=O)N[C@@H](CCC(=O)O)C(=O)O)C(=O)O)Cc1ccc(Br)cc1 [Compound 4NGM],,Ki (GCPII; [4]): 0.0449 nM

SMILES,inhibition at 20 µM (Recombinant human GCPII; [2]) [%],further results
O=CNCCCC[C@H](NC(=O)N[C@@H](CCC(=O)O)C(=O)O)C(=O)O [Compound 4NGN],,Ki (GCPII; [4]): 0.268 nM
O=C(N[C@@H](CCCCNC(=O)c1ccc(I)cc1)C(=O)O)NC1(C(=O)O)CC1 [Compound 4OC0],,Ki (GCPII; [4]): 318 nM
COc1ccc(N(CCC(=O)O)CCC(=O)O)cc1OC [Compound 4],2,
O=C(O)CSc1nnnn1-c1ccc(C(=O)O)cc1 [Compound 5],3,
Cc1sc(NC(=O)c2cc(C(=O)O)ccc2C(=O)O)c(C#N)c1C [Compound 6],4,
O=C(O)CCN(CCC(=O)O)c1ccccc1O [Compound 7],12,
COc1ccc([C@H](C)NC(=O)c2cc(C(=O)O)ccc2C(=O)O)cc1 [Compound 8],1,
O=C(O)CCC(=O)Nc1cc(C(=O)O)ccc1Br [Compound 9],0,
O=C(O)CCCC(=O)Nc1ccc(C(=O)O)cc1 [Compound 10],0,
O=C(O)c1cccc(NC(=O)[C@H]2CC=CC[C@H]2C(=O)O)c1 [Compound 11],0,
COc1ccc(OC)c(NC(=O)c2ccc(C(=O)O)cc2C(=O)O)c1 [Compound 12],0,
COc1ccc(Cl)cc1NC(=O)c1ccc(C(=O)O)cc1C(=O)O [Compound 13],0,
O=C(O)c1ccccc1CN[C@@H](Cc1c[nH]c2ccccc12)C(=O)O [Compound 14],0,
N#Cc1c(NC(=O)c2ccc(C(=O)O)cc2C(=O)O)sc2c1CCCC2 [Compound 15],13,
CCOc1ccc(NC(=O)c2cc(C(=O)O)ccc2C(=O)O)cc1 [Compound 16],0,
O=C(O)CN[S@TB17](=O)(=O)c1ccc(C(=O)O)cc1 [Compound 19],0,
O=C(O)Cn1c(COCc2nc3ccccc3n2CC(=O)O)nc2ccccc21 [Compound 20],8,
O=C(O)CSc1nc2ccccc2n1CC(=O)O [Compound 21],1,
CC(C)(CC(=O)Nc1scc(-c2cccs2)c1C(=O)O)CC(=O)Nc1scc(-c2cccs2)c1C(=O)O [Compound 22],> 25,Inhibition [%] of GCPII activity (Recombinant human GCPII; [2]): 38%
O=C(O)CSc1ncccc1C(=O)O [Compound 23],11,
O=C(O)c1cc(C(=O)O)c(C(=O)O)cc1C(=O)O [Compound 24],> 25,Inhibition [%] of GCPII activity (Recombinant human GCPII; [2]): 33%
O=C(O)CN1CCC(C(=O)O)CC1 [Compound 25],0,
CC(C)(CC(=O)Nc1scc(-c2ccccc2)c1C(=O)O)CC(=O)Nc1scc(-c2ccccc2)c1C(=O)O [Compound 26],18,
O=C(O)CCN(CCC(=O)O)c1ccc(/C=C/c2ccnc3ccccc23)cc1 [Compound 27],18,

SMILES,inhibition at 20 µM (Recombinant human GCPII; [2]) [%],further results
Nc1cc(N)c(C(=O)O)cc1C(=O)O [Compound 28],> 25,Inhibition [%] of GCPII activity (Recombinant human GCPII; [2]): 29%
Cc1cc(-c2ccc(NC(=O)CCC(=O)O)c(C)c2)ccc1NC(=O)CCC(=O)O [Compound 29],0,
O=C(NCCCCCCNC(=O)[C@H]1CCCC[C@H]1C(=O)O)[C@H]1CCCC[C@H]1C(=O)O [Compound 30],0,
O=C(O)c1ccc(CNCc2ccccc2C(=O)O)cc1 [Compound 31],8,
O=C(O)CN[S@TB17](=O)(=O)c1cccc(C(=O)O)c1 [Compound 32],1,
O=C(O)CNc1ccc(C(=O)O)cc1 [Compound 33],0,
O=C(O)c1ccccc1NC(=O)[C@@H](O)[C@H](O)C(=O)O [Compound 34],2,
O=C(O)CCCC(=O)Nc1cccc(C(=O)O)c1 [Compound 35],1,
O=C(O)c1ccc(C(=O)NCCc2ccccc2)c(C(=O)O)c1 [Compound 36],3,
O=C(O)c1ccc(C(=O)NCc2ccccc2)c(C(=O)O)c1 [Compound 37],1,
CC(=O)c1ccc(NC(=O)c2ccc(C(=O)O)cc2C(=O)O)cc1 [Compound 38],0,
CCCCc1ccc(NC(=O)c2ccc(C(=O)O)cc2C(=O)O)cc1 [Compound 39],10,
O=C(O)c1ccc(C(=O)Nc2cc(Cl)ccc2Cl)c(C(=O)O)c1 [Compound 40],4,
O=C(O)c1ccc(C(=O)Nc2ccc(Oc3ccccc3)cc2)c(C(=O)O)c1 [Compound 41],0,
COc1ccc([S@TB4](=O)(=O)Oc2ccc(C(=O)O)cc2)cc1 [Compound 42],1,
O=[N+]([O-])c1ccc([S@TB4](=O)(=O)Oc2cccc(O[S@TB17](=O)(=O)c3ccc([N+](=O)[O-])cc3)c2)cc1 [Compound 43],,inhibition at 20 µM (Recombinant human GCPII): 1%
COc1cc(C(=O)O)ccc1O[S@TB17](=O)(=O)c1ccc(F)cc1 [Compound 44],0,
O=C(O)c1ccc(CN2CC(C(=O)O)CC2=O)cc1 (stereo not shown) [Compound 45],,Inhibition [%] of GCPII activity (Recombinant human GCPII; [2]): 1%
Cc1c(C)c(CC(C(=O)O)C(=O)O)c(C)c(C)c1CC(C(=O)O)C(=O)O [Compound 47],24,
O=C(/C=C/c1ccccc1)Oc1cc([S@TB3](=O)(=O)O)cc2cc([S@TB3](=O)(=O)O)ccc12 [Compound 48],16,
CCCCc1nc(Cl)c(C(=O)O)n1Cc1ccc(-c2ccccc2-c2nnn[nH]2)s1 [Compound 49],15,
O=[N+]([O-])c1ccc([S@TB4](=O)(=O)Oc2ccc(O[S@TB17](=O)(=O)c3ccc([N+](=O)[O-])cc3)c(Br)c2)cc1 [Compound 50],,inhibition at 20 µM (Recombinant human GCPII): 1%
